Source: US20180369327A1, “METHOD FOR TREATING OR PREVENTING OSTEOARTHRITIS” (Dong-A University Research Foundation for Industry-Academy …, priority 2017, published 2018)

Experiments:
[1] = system: FSP27; assay: Western blot of FSP27 protein in articular chondrocytes; format: cell-based, rat; details: 30 μM cilostazol, 1.5 mM oleate; n=4
Method: (§1) Rat articular chondrocytes for primary culture were isolated from knee joint cartilage slices by enzymatic digestion for 1 h with 0.2% type II collagenase (381 units/mg) in DMEM. After the isolated cells were collected by brief centrifugation, they were resuspended in DMEM supplemented with 10% (v/v) FBS, […] streptomycin and 50 units/ml penicillin (Gibco). The cells were plated on culture dishes at a density of 5×10^4 cells/cm^2. The medium was replaced every 2 days, and they reached confluence after approximately 5 days in culture. In each experiment, the cells from three animals were pooled and analyzed three times. FFA were dissolved in absolute ethanol at a concentration of 500 mM and diluted to final concentrations of FFAs with the appropriate concentration of 1% (w/v) FFA-free BSA. Controls were incubated with equal concentrations of FFA-free BSA containing ethanol. […] Cell (2×10^6) were washed twice with ice-cold PBS. Cells were resuspended in lysis buffer [200 ll of icecold solubilizing buffer (300 mM NaCl, 50 mM Tris-Cl (pH 7.6), 0.5% Triton X-100, protease inhibitor cocktail)] and incubated at 4° C. for 30 min. The lysates were centrifuged at 14,000 rpm for 20 min at 4° C. The protein concentrations of the cell lysates were measured with the Bradford protein assay reagent (Bio-Rad). Then, 50 μg of proteins was loaded onto 15 SDS-PAGE. The separated proteins were transferred to nitrocellulose membranes (Amersham Pharmacia Biotech, Piscataway, N.J., USA) and probed with each antibody. Immunostaining with the antibodies was carried out using the Super Signal West Pico enhanced chemiluminescence substrate and detected with LAS-3000PLUS.

[2] = system: caspase-3 and -7; assay: Western blot of apoptosis-related factors (caspase-3 and -7 activation); format: cell-based, rat; details: 30 μM cilostazol, 1.5 mM oleate; n=4
Method: as §1, with “The lysates were centrifuged at 14,000 rpm for 20 min at 4° C.” left out, “Then, 50 μg of proteins was loaded onto 15 SDS-PAGE. The separated proteins were transferred to nitrocellulose membranes (Amersham Pharmacia Biotech, Piscataway, N.J., USA) and probed with each antibody.” left out

O=C1CCc2cc(OCCCCc3nnnn3C3CCCCC3)ccc2N1 [cilostazol]
effect on oleate-induced downregulation of FSP27 [1]: prevented the 1.5 mM oleate-induced downregulation of FSP27 | effect on oleate-induced activation of caspase-3 and -7 [2]: prevented
